Tests used:
[1] = target: T1, HEK293 cells expressing GHS-R1a receptor (Homo sapiens, UniProt Q92847); assay: Fluorescence functional assay (ghrelin receptor), Example 2; format: cell-based; details: assay of Example 2 (fluorescence, calcium)
T1 construct: host or cells: HEK293 cells (grown under geneticin selection)
Experimental: The compounds of the present invention were evaluated for their ability to interact at the human ghrelin receptor utilizing a competitive radioligand binding assay, fluorescence assay or Aequorin functional assay as described in the examples below. Such methods can be conducted, if so desired, in a high throughput manner to permit the simultaneous evaluation of many compounds.
• 1. Hanks' BSS without phenol red (Life Technologies) • 2. Hepes buffer • 3. Probenecid (Sigma) • 4. FLIPR Calcium-3 Assay Kit (Molecular Devices #R-8091) • 5. Falcon cell culture 96-well black/clear bottom plates • 6. 0.05% trypsin-EDTA • 7. […]
The plates were removed from the incubator and the media removed by inversion of the plates. […] For agonist testing, after reading for ten (10) sec, 25 μL of 2× test compound or control was injected into the assay plate. Fluorescence was monitored for an additional 50 sec. A reading was taken every two (2) seconds for a total of 30 readings per assay point.
For antagonist testing, after reading for ten (10) sec, 12.5 μL of 3× test compound or control was injected into the assay plate and allowed to react for three (3) min. At that time, 4 nM ghrelin (corresponds to EC80) was injected and fluorescence was monitored for an additional 60 sec. A reading was taken every two (2) seconds for a total of 125 readings per data point. […]

ghrelin receptor = ghrelin receptor (Homo sapiens, UniProt Q92847); assay: Inverse agonist assay, Example 4; format: cell-based; details: inverse agonist activity
Excerpt: The inverse agonist activity at the ghrelin receptor for compounds of the invention can be determined using the methods described in Intl. Pat. Appl. Publ. No. WO 2004/056869 and Holst, B.; Cygankiewicz, A.; Halkjaer, T.; Ankersen, A.; Schwartz, T. W. High constitutive signaling of the ghrelin receptor—identification of a potent inverse agonist. Mol. Endocrinol. 2003, 17, 2201-2210.

T1 sequence (Q92847 whole entry): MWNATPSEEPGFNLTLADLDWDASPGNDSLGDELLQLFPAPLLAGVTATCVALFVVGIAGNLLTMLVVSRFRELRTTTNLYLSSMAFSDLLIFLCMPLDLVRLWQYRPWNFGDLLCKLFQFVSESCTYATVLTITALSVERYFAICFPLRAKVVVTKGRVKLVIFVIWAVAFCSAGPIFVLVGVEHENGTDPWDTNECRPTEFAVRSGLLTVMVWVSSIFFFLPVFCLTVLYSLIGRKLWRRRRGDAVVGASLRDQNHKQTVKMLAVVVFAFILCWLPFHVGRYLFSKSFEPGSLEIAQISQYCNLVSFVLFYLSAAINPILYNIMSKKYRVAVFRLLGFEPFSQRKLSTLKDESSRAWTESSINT
ghrelin receptor, sequence (Q92847 whole entry): as above

Ki [1]: 100 to 1000 nM
IC50 (ghrelin receptor): 1 to 100 nM
SMILES: CCC(C)[C@@H]1NCCOc2ccccc2/C=C/CNC(=O)[C@@H](Cc2ccccc2)NC(=O)[C@H](C(C)O)N(C)C1=O (some centres unmarked) [Compound 502]

— patent US20090275648A1, “MACROCYCLIC GHRELIN RECEPTOR ANTAGONISTS AND INVERSE AGONISTS AND METHODS OF USING THE SAME” (priority 2005, published 2009)
